This is an account of results in patent US6787545B1, “Pyrrolotriazine derivatives having spla2-inhibitory activities” (Shiongi & Co., Ltd., priority 1999, dated 2004).

Molecules are shown by their SMILES.

In data set [1] the target is T1, recombinant human secretory phospholipase A2 (Homo sapiens, UniProt P14555).
T1 sequence (P14555 21-144): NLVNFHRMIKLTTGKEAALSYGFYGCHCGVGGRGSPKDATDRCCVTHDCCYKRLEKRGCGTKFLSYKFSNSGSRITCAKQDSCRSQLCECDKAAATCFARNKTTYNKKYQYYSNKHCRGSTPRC
The data set can be described thus: Inhibition test of human secretory phospholipase A2 (chromogenic assay, 96 well microtiterplate). The format is biochemical. The note with it: sPLA2 50 ng/well, 40° C., 30 minutes, OD 405 nm, substrate 1,2-bis(heptanoylthio)-1,2-dideoxy-sn-glycero-3-phospholylcholine. From the text: Inhibition Test of Human Secretory Phospholipase A2 Analytical Experiment
In order to identify and evaluate an inhibitor of recombinant human secretory phospholipase A2, the following chromogenic assay is utilized. The assay herein has been applied for high volume screening wherein 96 well microtiterplate is used. A general explanation for such assay is described in “Analysis of Human Synovial Fluid Phospholipase A2 on Short Chain Phosphatidylcholine-Mixed Micelles: Development of a Spectrophotometric Assay Suitable for a Micortiterplate Reader” (Analytical Biochemistry, 204, pp 190-197, 1992 by Laure. J. Reynolds. Lori L. Hughes and Edward A. Dennis: the disclosure of which is incorporated herein for reference.
1 mg of sPLA2 is dissolved in 1 ml of an enzyme buffer. Thereafter, the solution is maintained at 4° C.
In the assay, 5 μl of the solution is diluted with 1995 μl of the reaction buffer to be used.
198 mg of 5,5′-dithiobis-2-[…] (manufactured by Wako Pure Chemicals) is dissolved in 100 ml of H2O
pH 7.5 (adjusted with NaOH)
100 mg of racemic 1,2-bis(heptanoylthio)-1,2-dideoxy-sn-glycero-3-phospholylcholine is dissolved in 1 ml of chloroform.
624.9 mg of Triton-X 100 is dissolved in the reaction buffer.
Enzyme Reaction: for 1 Plate of Microtiterplate
1) 0.106 ml of the substrate solution is put in a centrifugal tube, and nitrogen gas is jetted to remove the solvent. 0.54 ml of Triton-X 100 is added thereto, the mixture is stirred, thereafter it is sonified in a bath type sonification to dissolve. To the resulting product are added 17.8 ml of the reaction buffer and 0.46 ml of DTNB, and 0.18 ml each of the admixture is poured to wells of the 96 well microtiterplate.
2) 10 μl of a test compound (or solvent blank) are added in accordance with alignment of plates which has been previously set.
3) Incubation is effected at 40° C. for 15 minutes.
4) 20 μl of an enzyme solution (sPLA2) which has been previously diluted (50 ng/well) are added to start reaction (40° C., 30 minutes).
5) Changes in absorbancy for 30 minutes are measured by a plate reader, and inhibition activity was calculated (OD: 405 nm).
6) IC50 was determined by plotting log concentration with respect to inhibition values within 10% to 90% inhibiting range.

As usually defined, the IC50 is the point on the concentration scale where inhibition reaches its midpoint. Broadly, the melting point is the temperature, or range, at which the solid turns liquid. `CCc1c(C(=O)C(N)=O)c2c(OCC(=O)O)nc(C)nn2c1Cc1ccccc1-c1cccs1` [Compound I-6]: the melting point fell in the range of 184 to 186 °C. Also, the IC50 in data set [1] came to 11 nM.
The molecule `Cc1nc(OCC(=O)O)c2c(C(=O)C(N)=O)c(C)c(Cc3ccccc3)n2n1` [Compound I-2] gave a melting point of 195 to 197 °C. Further, the IC50 in data set [1] was determined as 13 nM.
In turn, `CCc1c(C(=O)C(N)=O)c2c(OCC(=O)O)nc(C)nn2c1Cc1ccccc1` [Compound I-4] yielded a melting point of 207 to 209 °C. The IC50 in data set [1] amounted to 11 nM.
`COC(=O)COc1nc(C)nn2c(Cc3ccccc3)c(C)c(C(=O)C(N)=O)c12` [Compound I-1]: the half-inhibitory concentration (IC50) in data set [1] was 203 nM.
Turning to `CCc1c(C(=O)C(N)=O)c2c(OCC(=O)O)nc(C)nn2c1Cc1ccccc1-c1ccccc1` [Compound I-8], the melting point lay in the range of 174 to 176 °C. The IC50 in data set [1] was found to be 8 nM.
Turning to `CCc1c(C(=O)C(N)=O)c2c(OCC(=O)OC)nc(C)nn2c1Cc1ccccc1-c1ccccc1` [Compound I-7], the concentration for half-maximal inhibition (IC50) in data set [1] worked out at 607 nM.
Consider `CCc1c(C(=O)C(N)=O)c2c(OCC(=O)OC)nc(C)nn2c1Cc1ccccc1` [Compound I-3], for which the melting point was in the range of 170 to 171 °C. Besides, the IC50 in data set [1] came to 317 nM.
